# Experimental data taken from patent US5384417A, “Heptitols” (priority 1994, dated 1995).
# How the values were obtained:
# Assay type in all cases: biochemical
# Golgi α-Mannosidase = biological target: T1, Golgi α-Mannosidase (Homo sapiens, UniProt Q16706); assay: inhibition of human liver Golgi α-mannosidase; settings: 1 mM inhibitor; read-out: % Inhibition of Glycosidase Activity, α-Mannosidase Golgi
# T1 construct: Human liver glycosidases were assayed; from tissue; host or cells: human liver
# T1 sequence (Q16706 1-1144): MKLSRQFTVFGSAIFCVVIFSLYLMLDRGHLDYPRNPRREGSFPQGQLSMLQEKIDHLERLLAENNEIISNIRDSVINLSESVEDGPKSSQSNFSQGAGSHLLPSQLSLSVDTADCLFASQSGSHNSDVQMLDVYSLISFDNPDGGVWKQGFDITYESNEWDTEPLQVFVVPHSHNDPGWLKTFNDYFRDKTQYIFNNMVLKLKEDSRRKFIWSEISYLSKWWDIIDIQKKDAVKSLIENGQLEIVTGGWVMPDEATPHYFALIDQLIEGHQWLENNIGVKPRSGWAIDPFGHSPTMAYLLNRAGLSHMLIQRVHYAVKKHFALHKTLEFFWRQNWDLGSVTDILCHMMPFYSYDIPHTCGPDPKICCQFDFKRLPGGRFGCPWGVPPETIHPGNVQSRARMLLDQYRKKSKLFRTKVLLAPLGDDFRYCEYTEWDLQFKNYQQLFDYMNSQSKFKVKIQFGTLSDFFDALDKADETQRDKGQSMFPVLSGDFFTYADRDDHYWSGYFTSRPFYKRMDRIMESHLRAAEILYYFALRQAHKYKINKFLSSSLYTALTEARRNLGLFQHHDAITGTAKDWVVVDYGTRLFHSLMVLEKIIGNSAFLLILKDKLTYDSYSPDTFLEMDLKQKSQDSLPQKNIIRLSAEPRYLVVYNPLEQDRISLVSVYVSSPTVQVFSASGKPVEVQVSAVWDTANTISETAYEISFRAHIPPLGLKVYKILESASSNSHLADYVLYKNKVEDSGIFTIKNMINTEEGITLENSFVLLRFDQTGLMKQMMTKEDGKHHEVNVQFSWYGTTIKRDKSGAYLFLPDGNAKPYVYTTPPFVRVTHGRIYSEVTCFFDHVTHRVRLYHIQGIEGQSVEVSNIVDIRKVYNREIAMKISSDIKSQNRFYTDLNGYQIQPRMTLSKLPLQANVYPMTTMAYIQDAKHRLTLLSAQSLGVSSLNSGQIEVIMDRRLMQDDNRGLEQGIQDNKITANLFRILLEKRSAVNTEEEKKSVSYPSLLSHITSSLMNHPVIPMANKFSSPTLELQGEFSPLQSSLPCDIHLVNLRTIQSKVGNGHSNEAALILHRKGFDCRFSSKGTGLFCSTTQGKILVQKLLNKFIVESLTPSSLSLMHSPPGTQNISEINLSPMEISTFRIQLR
# Protocol: (§1) Human liver glycosidases were assayed in the absence and presence [1 mM] of each of the potential inhibitors, using the appropriate buffered 4-methylumbelliferyl glycosides as substrates, as previously described.^17 See Table I, below.
# Lysosomal α-Mannosidase = biological target: T2, Lysosomal α-Mannosidase (Homo sapiens, UniProt O00754); assay: inhibition of human liver lysosomal α-mannosidase; settings: for inhibition at 1000 µM: 1 mM inhibitor, read-out: % Inhibition of Glycosidase Activity, α-Mannosidase Lysosomal
# T2 construct: Human liver glycosidases were assayed; from tissue; host or cells: human liver
# T2 sequence (O00754 50-1011): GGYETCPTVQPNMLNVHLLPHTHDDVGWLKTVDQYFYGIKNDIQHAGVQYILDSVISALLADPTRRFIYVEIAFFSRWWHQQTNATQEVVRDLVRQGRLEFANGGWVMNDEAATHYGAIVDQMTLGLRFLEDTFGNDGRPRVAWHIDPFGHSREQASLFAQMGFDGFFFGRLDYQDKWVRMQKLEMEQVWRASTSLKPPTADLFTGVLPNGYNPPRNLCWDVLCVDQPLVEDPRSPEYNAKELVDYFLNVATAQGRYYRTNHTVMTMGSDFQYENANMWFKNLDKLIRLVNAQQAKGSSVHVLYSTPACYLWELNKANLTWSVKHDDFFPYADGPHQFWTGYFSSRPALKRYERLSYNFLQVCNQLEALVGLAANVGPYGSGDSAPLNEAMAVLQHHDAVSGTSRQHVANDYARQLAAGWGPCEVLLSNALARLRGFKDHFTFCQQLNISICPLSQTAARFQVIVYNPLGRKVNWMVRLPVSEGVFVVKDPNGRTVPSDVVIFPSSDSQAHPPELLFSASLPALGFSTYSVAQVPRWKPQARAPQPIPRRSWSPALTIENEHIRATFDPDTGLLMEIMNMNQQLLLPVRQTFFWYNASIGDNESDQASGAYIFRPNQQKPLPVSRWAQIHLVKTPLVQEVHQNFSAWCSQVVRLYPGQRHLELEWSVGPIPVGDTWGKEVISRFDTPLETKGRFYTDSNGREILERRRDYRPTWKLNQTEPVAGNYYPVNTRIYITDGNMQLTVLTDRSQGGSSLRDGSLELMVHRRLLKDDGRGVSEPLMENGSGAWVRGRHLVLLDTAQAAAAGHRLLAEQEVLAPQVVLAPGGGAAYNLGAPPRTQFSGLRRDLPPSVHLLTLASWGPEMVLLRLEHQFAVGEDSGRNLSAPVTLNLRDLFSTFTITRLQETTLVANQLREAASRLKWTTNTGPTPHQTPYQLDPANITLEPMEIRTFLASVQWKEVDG
# Protocol: as §1
# β-Hexosaminidase = assay: inhibition of human liver β-hexosaminidase; settings: for % Inhibition of Glycosidase Activity, β-Hexosaminidase: 1 mM inhibitor; for inhibition of β-hexosaminidase (in words): 1 mM
# Protocol: as §1
# β-Glucosidase = assay: inhibition of human liver β-glucosidase; settings: 1 mM inhibitor
# Protocol: as §1
# α-Glucosidase = assay: inhibition of human liver α-glucosidase; settings: 1 mM inhibitor
# Protocol: as §1
# α-Fucosidase = biological target: T3, α-Fucosidase (Homo sapiens, UniProt P04066); assay: inhibition of human liver α-fucosidase; settings: for inhibition of α-fucosidase (in words): 1 mM; for inhibition at 1000 µM: 1 mM inhibitor, read-out: % Inhibition of Glycosidase Activity, α-Fucosidase
# T3 construct: Human liver glycosidases were assayed; from tissue; host or cells: human liver
# T3 sequence (P04066 32-466): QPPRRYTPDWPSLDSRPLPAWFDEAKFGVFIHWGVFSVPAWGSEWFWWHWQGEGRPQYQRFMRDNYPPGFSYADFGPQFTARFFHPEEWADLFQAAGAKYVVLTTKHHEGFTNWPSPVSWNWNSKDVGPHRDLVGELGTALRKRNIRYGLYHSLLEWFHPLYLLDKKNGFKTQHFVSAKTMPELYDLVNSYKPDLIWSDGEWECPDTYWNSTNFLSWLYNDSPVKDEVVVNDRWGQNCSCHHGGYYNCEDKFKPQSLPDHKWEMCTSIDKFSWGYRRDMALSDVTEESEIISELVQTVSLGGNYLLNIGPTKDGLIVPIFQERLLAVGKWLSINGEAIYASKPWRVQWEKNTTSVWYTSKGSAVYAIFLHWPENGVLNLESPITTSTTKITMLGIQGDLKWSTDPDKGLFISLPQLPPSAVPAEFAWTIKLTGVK
# Protocol: as §1
Structure (SMILES),inhibition at 1000 µM (Golgi α-Mannosidase) [%],inhibition at 1000 µM (Lysosomal α-Mannosidase) [%],"% Inhibition of Glycosidase Activity, β-Hexosaminidase (β-Hexosaminidase) [%]","% Inhibition of Glycosidase Activity, β-Glucosidase (β-Glucosidase) [%]","% Inhibition of Glycosidase Activity, α-Glucosidase (α-Glucosidase) [%]",inhibition of α-fucosidase (in words) (α-Fucosidase),inhibition at 1000 µM (α-Fucosidase) [%],inhibition of β-hexosaminidase (in words) (β-Hexosaminidase),inhibition of α-fucosidase (in words) (α-Fucosidase; listed as α-(aminomethyl)-1-deoxy-mannofuranose (5)),inhibition of lysosomal α-mannosidase (in words) (Lysosomal α-Mannosidase; compared with DIM (3))
OC[C@@H](O)[C@H]1NC[C@@H](O)[C@H]1O [DIM (3)],96,97,28,16,0,,,,,
OC[C@H]1N[C@H](CO)[C@@H](O)C(O)[C@@H]1O (stereo partly drawn) [αHomoDMJ (2)],56,49,1,0,4,decrease markedly the potent inhibition of α-fucosidase,29,abolish the moderate inhibition of β-hexosaminidase,,
"NC[C@H]1O[C@H]([C@H](O)CO)[C@H](O)[C@@H]1O [Manhepamine (5), 1-amino-2,5-anhydro-1-deoxy-D-glycero-D-talo-heptitol]",,2,46,14,0,moderate inhibition of α-fucosidase,77,weak inhibitory properties towards β-N-acetylhexosaminidase,moderate inhibitor of α-fucosidase,
"OC[C@@H](O)[C@H]1N[C@H](CO)[C@@H](O)[C@H]1O [αHomoDIM (4), 2,5-dideoxy-2,5-imino-D-glycero-D-talo-heptitol]",92,71,0,23,12,much less potent,27,,,decreases the inhibition of the lysosomal and neutral enzymes
"OC[C@H]1NC[C@@H](O)[C@@H](O)[C@@H]1O [DMJ (1), deoxymannojirimycin]",45,58,55,0,21,potent inhibition of α-fucosidase,,moderate inhibition of β-hexosaminidase,,
